Experimental data: patent US11912701B2, “Protein kinase inhibitors for promoting liver regeneration or reducing or preventing hepatocyte death” (HEPAREGENIX GMBH, priority 2018, dated 2024)

How the values were obtained:
Type in all cases: biochemical
BRaf = target: T1, BRaf (Homo sapiens, UniProt P15056); assay: 33PanQinase enzyme assay, BRaf; conditions: ratio IC50(BRaf)/IC50(MKK4)
T1 construct: purchased ProQinase GmbH, Freiburg, Germany (33PanQinase Assay Service)
In short: (§1)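 Off-target selectivity is the ratio IC50(off-target)/IC50(MKK4), with IC50 values from least-squares fitting and single-point data as % residual activity. Reactions of enzyme/substrate mix, ATP and compound ran 60 min at 30° C before H3PO4 stop; ^33P incorporation read on a scintillation counter.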

MKK7 = target: T2, MKK7 (Homo sapiens, UniProt O14733); assay: 33PanQinase enzyme assay, MKK7; parameters: purchased ProQinase GmbH, Freiburg, Germany (33PanQinase Assay Service); conditions: ratio IC50(MKK7)/IC50(MKK4)
T2 sequence (O14733 1-419): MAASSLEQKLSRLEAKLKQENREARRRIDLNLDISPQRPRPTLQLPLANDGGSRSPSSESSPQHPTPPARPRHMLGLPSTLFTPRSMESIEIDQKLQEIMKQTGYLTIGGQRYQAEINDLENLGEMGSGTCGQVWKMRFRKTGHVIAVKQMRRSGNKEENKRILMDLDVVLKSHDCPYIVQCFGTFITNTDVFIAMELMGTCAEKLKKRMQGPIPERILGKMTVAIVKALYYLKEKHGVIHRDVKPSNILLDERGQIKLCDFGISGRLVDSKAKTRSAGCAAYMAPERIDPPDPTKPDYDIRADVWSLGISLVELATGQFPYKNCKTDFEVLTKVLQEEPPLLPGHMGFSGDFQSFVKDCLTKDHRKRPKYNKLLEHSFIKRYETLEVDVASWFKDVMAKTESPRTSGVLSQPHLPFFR
In short: as §1

MKK4 = target: T3, MKK4 (Homo sapiens, UniProt P45985); assay: 33PanQinase enzyme assay, MKK4; conditions: assay 'IC50'; read-out: Potency MKK4 (IC50)
T3 construct: purchased ProQinase GmbH, Freiburg, Germany (33PanQinase Assay Service)
T3 sequence (P45985 1-399): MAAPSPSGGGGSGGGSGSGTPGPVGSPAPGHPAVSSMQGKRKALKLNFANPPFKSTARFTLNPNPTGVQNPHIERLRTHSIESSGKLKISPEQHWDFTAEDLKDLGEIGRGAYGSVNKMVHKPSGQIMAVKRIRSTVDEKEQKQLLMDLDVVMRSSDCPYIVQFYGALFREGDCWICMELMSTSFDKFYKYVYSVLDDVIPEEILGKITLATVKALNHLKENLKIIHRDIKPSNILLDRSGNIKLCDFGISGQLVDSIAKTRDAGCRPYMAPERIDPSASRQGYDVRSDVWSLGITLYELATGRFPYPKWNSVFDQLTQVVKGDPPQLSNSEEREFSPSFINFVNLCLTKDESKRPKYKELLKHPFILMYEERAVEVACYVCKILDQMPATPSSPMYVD
In short: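 Inhibition measured as 33Pi transfer to substrate after a 60-min, 30 °C reaction, acid-stopped and scintillation-counted.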

JNK1 = JNK1 (Homo sapiens, UniProt P45983); assay: 33PanQinase enzyme assay, JNK1; parameters: purchased ProQinase GmbH, Freiburg, Germany (33PanQinase Assay Service); conditions: ratio IC50(JNK1)/IC50(MKK4)
In short: as §1

Chain of JNK1 (P45983 whole entry): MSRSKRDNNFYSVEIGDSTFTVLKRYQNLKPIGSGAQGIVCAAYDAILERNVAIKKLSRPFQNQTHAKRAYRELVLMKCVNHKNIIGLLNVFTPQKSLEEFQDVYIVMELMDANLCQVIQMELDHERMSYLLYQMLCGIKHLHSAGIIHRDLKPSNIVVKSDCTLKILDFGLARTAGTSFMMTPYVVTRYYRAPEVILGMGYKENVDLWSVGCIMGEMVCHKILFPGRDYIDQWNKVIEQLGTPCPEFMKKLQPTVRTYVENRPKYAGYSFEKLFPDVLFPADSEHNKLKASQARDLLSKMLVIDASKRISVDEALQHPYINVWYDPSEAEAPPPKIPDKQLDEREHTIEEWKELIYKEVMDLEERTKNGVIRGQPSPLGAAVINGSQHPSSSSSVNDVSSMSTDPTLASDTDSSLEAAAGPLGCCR
T1 sequence (P15056 whole entry, species assumed): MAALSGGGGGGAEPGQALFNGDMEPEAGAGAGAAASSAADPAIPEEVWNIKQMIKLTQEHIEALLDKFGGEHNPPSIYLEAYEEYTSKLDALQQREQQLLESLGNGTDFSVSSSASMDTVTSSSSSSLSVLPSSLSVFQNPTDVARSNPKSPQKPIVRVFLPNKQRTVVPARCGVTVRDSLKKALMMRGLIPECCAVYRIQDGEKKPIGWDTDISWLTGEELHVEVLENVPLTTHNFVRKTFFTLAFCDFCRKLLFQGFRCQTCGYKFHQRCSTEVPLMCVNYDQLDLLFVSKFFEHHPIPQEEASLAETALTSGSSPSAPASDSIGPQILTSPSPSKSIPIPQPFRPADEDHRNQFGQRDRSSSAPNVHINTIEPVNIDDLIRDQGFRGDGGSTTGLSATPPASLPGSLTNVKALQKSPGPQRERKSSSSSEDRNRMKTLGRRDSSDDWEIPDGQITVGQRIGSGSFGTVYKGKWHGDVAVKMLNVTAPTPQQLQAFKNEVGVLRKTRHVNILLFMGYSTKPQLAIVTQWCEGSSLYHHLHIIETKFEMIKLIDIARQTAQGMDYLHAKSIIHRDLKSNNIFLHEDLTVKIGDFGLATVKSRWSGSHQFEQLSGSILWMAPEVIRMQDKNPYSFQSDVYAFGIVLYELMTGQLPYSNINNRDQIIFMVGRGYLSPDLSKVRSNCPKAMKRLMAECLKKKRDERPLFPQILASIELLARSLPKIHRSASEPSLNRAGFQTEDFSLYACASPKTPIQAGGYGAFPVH

| SMILES | Selectivity Braf, IC50(off-target)/IC50(MKK4) (BRaf) | Selectivity IVIKK7, IC50(off-target)/IC50(MKK4) (MKK7) | IC50 (MKK4) [nM] | Selectivity JNK1, IC50(off-target)/IC50(MKK4) (JNK1) |
| --- | --- | --- | --- | --- |
| CCCS(=O)(=O)Nc1c(F)ccc(C(=O)c2c[nH]c3ncc(-c4cnc(N5CC[C@@H](O)C5)nc4)cc23)c1F [Example 204, (R)-N-(2,6-difluoro-3-(5-(2-(3-hydroxypyrrolidin-1-yl)pyrimidin-5-yl)-1H-pyrrolo[2,3-b]pyridine-3-carbonyl)phenyl)propane-1-sulfonamide] | ++ (100 ≥ IC50(off-target)/IC50(MKK4) > 10) | +++ (IC50(off-target)/IC50(MKK4) > 100) | 100 to 1000 | +++ (IC50(off-target)/IC50(MKK4) > 100) |
| CCCS(=O)(=O)Nc1ccc(F)c(C(=O)c2c[nH]c3ncc(N4CCC(=O)CC4)cc23)c1F [Example 135, N-(2,4-difluoro-3-(5-(4-oxopiperidin-1-yl)-1H-pyrrolo[2,3-b]pyridine-3-carbonyl)phenyl)propane-1-sulfonamide] | ◯ (3 ≥ IC50(off-target)/IC50(MKK4)) | ++ (100 ≥ IC50(off-target)/IC50(MKK4) > 10) | 1000 to 10000 | ◯ (3 ≥ IC50(off-target)/IC50(MKK4)) |
| CCCS(=O)(=O)Nc1c(F)ccc(C(=O)c2c[nH]c3ncc(-c4cccc(C(=O)O)c4)cc23)c1F [Example 223, 3-(3-(2,4-difluoro-3-(propylsulfonamido)benzoyl)-1H-pyrrolo[2,3-b]pyridin-5-yl)benzoic acid] | + (10 ≥ IC50(off-target)/IC50(MKK4) > 3) | +++ (IC50(off-target)/IC50(MKK4) > 100) | < 100 | ++ (100 ≥ IC50(off-target)/IC50(MKK4) > 10) |
| CCCS(=O)(=O)Nc1c(F)ccc(C(=O)c2c[nH]c3ncc(-c4cnc(NCCO)nc4)cc23)c1F [Example 201, N-(2,6-difluoro-3-(5-(2-((2-hydroxyethyl)amino)pyrimidin-5-yl)-1H-pyrrolo[2,3-b]pyridine-3-carbonyl)phenyl)propane-1-sulfonamide] | +++ (IC50(off-target)/IC50(MKK4) > 100) | +++ (IC50(off-target)/IC50(MKK4) > 100) | < 100 | +++ (IC50(off-target)/IC50(MKK4) > 100) |
| CCCS(=O)(=O)Nc1c(F)ccc(C(=O)c2c[nH]c3ncc(-c4cnc(N(C)CCO)nc4)cc23)c1F [Example 202, N-(2,6-difluoro-3-(5-(2-((2-hydroxyethyl)(methyl)amino)pyrimidin-5-yl)-1H-pyrrolo[2,3-b]pyridine-3-carbonyl)phenyl)propane-1-sulfonamide] | ++ (100 ≥ IC50(off-target)/IC50(MKK4) > 10) | +++ (IC50(off-target)/IC50(MKK4) > 100) | < 100 | +++ (IC50(off-target)/IC50(MKK4) > 100) |
| O=C(c1cccc(NS(=O)(=O)Cc2ccccc2)c1F)c1c[nH]c2ncc(-c3cnc(C4CC4)nc3)cc12 [Example 131, N-(3-(5-(2-cyclopropylpyrimidin-5-yl)-1H-pyrrolo[2,3-b]pyridine-3-carbonyl)-2-fluorophenyl)-1-phenylmethanesulfonamide] | ++ (100 ≥ IC50(off-target)/IC50(MKK4) > 10) | +++ (IC50(off-target)/IC50(MKK4) > 100) | 100 to 1000 | ++ (100 ≥ IC50(off-target)/IC50(MKK4) > 10) |
| CS(=O)(=O)Nc1c(F)ccc(C(=O)c2c[nH]c3ncc(-c4ccc(Cl)cc4)cc23)c1F [Example 149, N-(3-(5-(4-chlorophenyl)-1H-pyrrolo[2,3-b]pyridine-3-carbonyl)-2,6-difluorophenyl)methanesulfonamide] | ++ (100 ≥ IC50(off-target)/IC50(MKK4) > 10) | +++ (IC50(off-target)/IC50(MKK4) > 100) | 100 to 1000 | ++ (100 ≥ IC50(off-target)/IC50(MKK4) > 10) |
| CCCS(=O)(=O)Nc1c(F)ccc(C(=O)c2c[nH]c3ncc(-c4ccncc4C)cc23)c1F [Example 235, N-(2,6-difluoro-3-(5-(3-methylpyridin-4-yl)-1H-pyrrolo[2,3-b]pyridine-3-carbonyl)phenyl)propane-1-sulfonamide] | +++ (IC50(off-target)/IC50(MKK4) > 100) | +++ (IC50(off-target)/IC50(MKK4) > 100) | < 100 | +++ (IC50(off-target)/IC50(MKK4) > 100) |
| CCCS(=O)(=O)Nc1ccc(F)c(C(=O)c2c[nH]c3ncc(-c4cscn4)cc23)c1F [Example 57] | ◯ (3 ≥ IC50(off-target)/IC50(MKK4)) | +++ (IC50(off-target)/IC50(MKK4) > 100) | 100 to 1000 | ◯ (3 ≥ IC50(off-target)/IC50(MKK4)) |
| CCCS(=O)(=O)Nc1ccc(F)c(C(=O)c2c[nH]c3ncc(-c4ccc(N(C)C)cc4)cc23)c1F [Example 98, N-(3-(5-(4-(dimethylamino)phenyl)-1H-pyrrolo[2,3-b]pyridine-3-carbonyl)-2,4-difluorophenyl)propane-1-sulfonamide] | ◯ (3 ≥ IC50(off-target)/IC50(MKK4)) | ++ (100 ≥ IC50(off-target)/IC50(MKK4) > 10) | 1000 to 10000 | + (10 ≥ IC50(off-target)/IC50(MKK4) > 3) |
| CCCS(=O)(=O)Nc1c(F)ccc(C(=O)c2c[nH]c3ncc(-c4ccc(C(=O)O)cc4)cc23)c1F [Example 222, 4-(3-(2,4-difluoro-3-(propylsulfonamido)benzoyl)-1H-pyrrolo[2,3-b]pyridin-5-yl)benzoic acid] | +++ (IC50(off-target)/IC50(MKK4) > 100) | +++ (IC50(off-target)/IC50(MKK4) > 100) | < 100 | ++ (100 ≥ IC50(off-target)/IC50(MKK4) > 10) |
| CCCS(=O)(=O)Nc1ccc(F)c(C(=O)c2c[nH]c3ncc(-c4ccc(SC(F)(F)F)cc4)cc23)c1F [Example 78, N-(2,4-difluoro-3-(5-(4-((trifluoromethyl)thio)phenyl)-1H-pyrrolo[2,3-b]pyridine-3-carbonyl)phenyl)propane-1-sulfonamide] | ◯ (3 ≥ IC50(off-target)/IC50(MKK4)) | +++ (IC50(off-target)/IC50(MKK4) > 100) | 100 to 1000 | + (10 ≥ IC50(off-target)/IC50(MKK4) > 3) |
| O=C(c1c(F)ccc(NS(=O)(=O)CCC(F)(F)F)c1F)c1c[nH]c2ncc(-c3ccc(N4CCSCC4)nc3)cc12 [Example 80, N-(2,4-difluoro-3-(5-(6-thiomorpholinopyridin-3-yl)-1H-pyrrolo[2,3-b]pyridine-3-carbonyl)phenyl)-3,3,3-trifluoropropane-1-sulfonamide] | ++ (100 ≥ IC50(off-target)/IC50(MKK4) > 10) | +++ (IC50(off-target)/IC50(MKK4) > 100) | < 100 | ++ (100 ≥ IC50(off-target)/IC50(MKK4) > 10) |
| CCCS(=O)(=O)Nc1ccc(F)c(C(=O)c2c[nH]c3ncc(-c4ccc(N=S(C)(C)=O)cc4)cc23)c1F [Example 119, N-(3-(5-(4-((dimethyl(oxo)-l6-sulfaneylidene)amino)phenyl)-1H-pyrrolo[2,3-b]pyridine-3-carbonyl)-2,4-difluorophenyl)propane-1-sulfonamide] | ◯ (3 ≥ IC50(off-target)/IC50(MKK4)) | +++ (IC50(off-target)/IC50(MKK4) > 100) | 100 to 1000 | ◯ (3 ≥ IC50(off-target)/IC50(MKK4)) |
| CCCS(=O)(=O)Nc1c(F)ccc(C(=O)c2c[nH]c3ncc(-c4cnc(SC(C)C)nc4)cc23)c1F [Example 197, N-(2,6-difluoro-3-(5-(2-(isopropylthio)pyrimidin-5-yl)-1H-pyrrolo[2,3-b]pyridine-3-carbonyl)phenyl)propane-1-sulfonamide] | +++ (IC50(off-target)/IC50(MKK4) > 100) | +++ (IC50(off-target)/IC50(MKK4) > 100) | 100 to 1000 | ++ (100 ≥ IC50(off-target)/IC50(MKK4) > 10) |
